Measured values taken from patent US12024510B2, “Pyrazolopyridine-diamides, their use as insecticide and processes for preparing the same” (PI INDUSTRIES LTD., priority 2017, dated 2024).

What was measured:
Helicoverpa armigera = Helicoverpa armigera diet incorporation method; assay type: in vivo; settings: third instar larvae, dead and moribund combined, 96 h after release
Method: (§1) Test Solutions were Prepared According to the Procedure Described Herein Below (500 PPM):
(§2) • 1. Eppendorf Vortex mixer (ThermoMixer C) and 1.5 mL Eppendorf tubes • 2. Zirconia (Zirconium-Yttrium) beads having diameter of 0.8 to 1.0 mm • 3. Microscope • 4. Beaker 100 mL • 5. Micro-pipette Reagents: • 1. Surfactant Solution • 2. De-mineralized (DM) Water • 1. Weigh 10 mg of the compound of the present invention to be tested in an Eppendorf Tube. • 2. Add 200 mg of the Surfactant Solution into the tube. • 3. Add 600 mg of Zirconia beads into the above mixture. • 4. Fix the tube in Eppendorf Vortex mixer and start vortexing at 2000 rpm. • 5. Mix on Vortex mixer for 30 minutes. After 30 minutes, observe the sample over a microscope at 400× resolution. • 6. If the Maximum particle size is more than 5 μm or average particle size is more than 2 μm or the particle size distribution is uneven, continue vortexing for another 30 minutes and again check the particle size using the microscope. Continue till the average particle size is below 2 microns. • 7. When the required particle size is achieved, add 1.0 mL DM water into the tube, close the cap, shake the tube thoroughly and transfer the contents, along with the beads, into a beaker. • 8. To rinse the tube, add another 1.0 mL of DM water into the tube, close the cap, shake well and transfer this into the same beaker. • 9. Repeat Step no. 8 one more time so that the tube is rinsed well and the compound of the present invention to be tested is transferred to the beaker. • 10. Add 16.8 mL of DM water into the beaker and stir well. • 11. The homogeneous dispersion can then be decanted into a glass vial, immediately, to separate the Zirconia beads. • 12. Immediately use this sample for biological testing. • 13. Further dilutions can be prepared by taking appropriate quantity of the aliquot of Step 10, immediately after stirring, and diluting as per requirement. The sample solution must be well mixed just before biological testing.
Diet incorporation method was used, in which and semi-synthetic diet was incorporated into the test solution when the temperature is approximately 50° C. in the bioassay containers and stirred thoroughly for properly mixing and then was allowed to cool for 30 min. The solidified diet was cut into equal pieces, and then each piece was transferred in one cell in Bio-assay trays. A single third instar starved larva was released into each of these cells of bioassay trays and the tray was covered with the lid. The bio-assay trays were kept under laboratory conditions at a temperature of 25° C. and Relative Humidity of 70%. Observations on dead, moribund and live larvae were recorded at 96 h after the release of larvae. Percent mortality was calculated by combining dead and moribund larvae. The following compound numbers

Plutella xylostella = experiment: whole plant or invertebrate; assay type: in vivo; settings: foliar, cabbage leaf dip, second instar larvae, dead and moribund combined, 72 h after release
Method: as §1, §2
Leaf dip method was used for screening, wherein the required quantity of the compounds were weighed and dissolved in the test solution into the tube and vortex at 2000 rpm with Zirconia beads for 90 min for proper mixing, then mixed with 0.01% Triton-X solution to get the desired test concentration. Cabbage leaves were dipped in the solution for 10 seconds, shade dried for 20 min and then transferred to bioassay trays. Single second instar larva was released into each cell and the tray was covered with lid. The bio-assay trays were kept under laboratory conditions at a temperature of 25° C. and relative humidity of 70%. Observations on dead, moribund and live larvae were recorded at 72 h after the release. Percent mortality was calculated by combining dead and moribund larvae. The following compound num.

Compound | mortality at 300 ppm (Helicoverpa armigera) | mortality at 300 ppm (Plutella xylostella)
CONC(=O)c1c(NC(=O)c2cc(N3CC(F)(F)C3)nn2-c2ncccc2Cl)c(C)cc2ccnn12 [Compound 84, 6-(1-(3-chloropyridin-2-yl)-3-(3,3-difluoroazetidin-1-yl)-1H-pyrazole-5-carboxamido)-N-methoxy-5-methylpyrazolo[1,5-a]pyridine-7-carboxamide] | > 70% | > 70%
Cc1cc2ccnn2c(C(=O)NCC(F)(F)F)c1NC(=O)c1cc(OCC(F)(F)F)nn1-c1ncccc1Cl [Compound 114, 6-(1-(3-chloropyridin-2-yl)-3-(2,2,2-trifluoroethoxy)-1H-pyrazole-5-carboxamido)-5-methyl-N-(2,2,2-trifluoroethyl)pyrazolo[1,5-a]pyridine-7-carboxamide] | > 70% | > 70%
CCCNC(=O)c1c(NC(=O)c2cc(OC)nn2-c2ncccc2Cl)c(Br)cc2ccnn12 [Compound 120, 5-bromo-6-(1-(3-chloropyridin-2-yl)-3-methoxy-1H-pyrazole-5-carboxamido)-N-propylpyrazolo[1,5-a]pyridine-7-carboxamide] | > 70% | 
COc1cc(C(=O)Nc2c(Br)cc3ccnn3c2C(=O)NC2CC2)n(-c2ncccc2Cl)n1 [Compound 122, 5-bromo-6-(1-(3-chloropyridin-2-yl)-3-methoxy-1H-pyrazole-5-carboxamido)-N-cyclopropylpyrazolo[1,5-a]pyridine-7-carboxamide] | > 70% | 
COc1cc(C(=O)Nc2c(Br)cc3ccnn3c2C(=O)NCC2CC2)n(-c2ncccc2Cl)n1 [Compound 123, 5-bromo-6-(1-(3-chloropyridin-2-yl)-3-methoxy-1H-pyrazole-5-carboxamido)-N-(cyclopropylmethyl)pyrazolo[1,5-a]pyridine-7-carboxamide] | > 70% | 
CONC(=O)c1c(NC(=O)c2cc(OC)nn2-c2ncccc2Cl)c(Br)cc2ccnn12 [Compound 124, 5-bromo-6-(1-(3-chloropyridin-2-yl)-3-methoxy-1H-pyrazole-5-carboxamido)-N-methoxypyrazolo[1,5-a]pyridine-7-carboxamide] | > 70% | 
O=C(Nc1c(Cl)cc2ccnn2c1C(=O)NCC(F)(F)F)c1cc(Br)nn1-c1ncccc1Cl [Compound 143, 6-(3-bromo-1-(3-chloropyridin-2-yl)-1H-pyrazole-5-carboxamido)-5-chloro-N-(2,2,2-trifluoroethyl)pyrazolo[1,5-a]pyridine-7-carboxamide] | > 70% | 
CCCNC(=O)c1c(NC(=O)c2cc(Cn3nnc(C(F)(F)F)n3)nn2-c2ncccc2Cl)c(Cl)cc2ccnn12 [Compound 155, 5-chloro-6-(1-(3-chloropyridin-2-yl)-3-((5-(trifluoromethyl)-2H-tetrazol-2-yl)methyl)-1H-pyrazole-5-carboxamido)-N-propylpyrazolo[1,5-a]pyridine-7-carboxamide] | > 70% | 
COCCNC(=O)c1c(NC(=O)c2cc(OC3CSC3)nn2-c2ncccc2Cl)c(C)cc2ccnn12 [Compound 161, 6-(1-(3-chloropyridin-2-yl)-3-(thietan-3-yloxy)-1H-pyrazole-5-carboxamido)-N-(2-methoxyethyl)-5-methylpyrazolo[1,5-a]pyridine-7-carboxamide] | > 70% | 
Cc1cc2ccnn2c(C(=O)NC2(C)CC2)c1NC(=O)c1cc(Br)nn1-c1ncccc1Cl [Compound 172, 6-(3-bromo-1-(3-chloropyridin-2-yl)-1H-pyrazole-5-carboxamido)-5-methyl-N-(1-methylcyclopropyl)pyrazolo[1,5-a]pyridine-7-carboxamide] | > 70% | 
Cc1cc2ccnn2c(C(=O)NCC(C)(C)C)c1NC(=O)c1cc(Br)nn1-c1ncccc1Cl [Compound 175, 6-(3-bromo-1-(3-chloropyridin-2-yl)-1H-pyrazole-5-carboxamido)-5-methyl-N-neopentylpyrazolo[1,5-a]pyridine-7-carboxamide] | > 70% | 
Cc1cc2ccnn2c(C(=O)NC(C)C(C)C)c1NC(=O)c1cc(Br)nn1-c1ncccc1Cl (stereo not drawn) [Compound 191, 6-(3-bromo-1-(3-chloropyridin-2-yl)-1H-pyrazole-5-carboxamido)-5-methyl-N-(3-methylbutan-2-yl)pyrazolo[1,5-a]pyridine-7-carboxamide] | > 70% | 
CCC(COC)NC(=O)c1c(NC(=O)c2cc(Br)nn2-c2ncccc2Cl)c(C)cc2ccnn12 (stereo not drawn) [Compound 192, 6-(3-bromo-1-(3-chloropyridin-2-yl)-1H-pyrazole-5-carboxamido)-N-(1-methoxybutan-2-yl)-5-methylpyrazolo[1,5-a]pyridine-7-carboxamide] |  | > 70%
Cc1cc2ccnn2c(C(=O)NCC2CCCC2)c1NC(=O)c1cc(Br)nn1-c1ncccc1Cl [Compound 194, 6-(3-bromo-1-(3-chloropyridin-2-yl)-1H-pyrazole-5-carboxamido)-N-(cyclopentylmethyl)-5-methylpyrazolo[1,5-a]pyridine-7-carboxamide] | > 70% | 
COc1cc(C(=O)Nc2c(C)cc3ccnn3c2C(=O)NCc2nccs2)n(-c2ncccc2Cl)n1 [Compound 204, 6-(1-(3-chloropyridin-2-yl)-3-methoxy-1H-pyrazole-5-carboxamido)-5-methyl-N-(thiazol-2-ylmethyl)pyrazolo[1,5-a]pyridine-7-carboxamide] | > 70% | 
CCC(COC)NC(=O)c1c(NC(=O)c2cc(OC)nn2-c2ncccc2Cl)c(C)cc2ccnn12 (stereo not drawn) [Compound 205, 6-(1-(3-chloropyridin-2-yl)-3-methoxy-1H-pyrazole-5-carboxamido)-N-(1-methoxybutan-2-yl)-5-methylpyrazolo[1,5-a]pyridine-7-carboxamide] |  | > 70%
Cc1cc2ccnn2c(C(=O)NC2CS(=O)(=O)C2)c1NC(=O)c1cc(Br)nn1-c1ncccc1Cl [Compound 208, 6-(3-bromo-1-(3-chloropyridin-2-yl)-1H-pyrazole-5-carboxamido)-N-(1,1-dioxidothietan-3-yl)-5-methylpyrazolo[1,5-a]pyridine-7-carboxamide] |  | > 70%
COc1cc(C(=O)Nc2c(C)cc3ccnn3c2C(=O)NC(C)CCC(C)C)n(-c2ncccc2Cl)n1 (stereo not drawn) [Compound 210, 6-(1-(3-chloropyridin-2-yl)-3-methoxy-1H-pyrazole-5-carboxamido)-5-methyl-N-(5-methylhexan-2-yl)pyrazolo[1,5-a]pyridine-7-carboxamide] |  | > 70%
COc1cc(C(=O)Nc2c(C)cc3ccnn3c2C(=O)NCCC(C)C)n(-c2ncccc2Cl)n1 [Compound 211, 6-(1-(3-chloropyridin-2-yl)-3-methoxy-1H-pyrazole-5-carboxamido)-N-isopentyl-5-methylpyrazolo[1,5-a]pyridine-7-carboxamide] | > 70% | 
COc1cc(C(=O)Nc2c(C)cc3ccnn3c2C(=O)NC(C)C(C)C)n(-c2ncccc2Cl)n1 (stereo not drawn) [Compound 212, 6-(1-(3-chloropyridin-2-yl)-3-methoxy-1H-pyrazole-5-carboxamido)-5-methyl-N-(3-methylbutan-2-yl)pyrazolo[1,5-a]pyridine-7-carboxamide] |  | > 70%
COc1cc(C(=O)Nc2c(C)cc3ccnn3c2C(=O)NCC2CCCCO2)n(-c2ncccc2Cl)n1 (stereo not drawn) [Compound 213, 6-(1-(3-chloropyridin-2-yl)-3-methoxy-1H-pyrazole-5-carboxamido)-5-methyl-N-((tetrahydro-2H-pyran-2-yl)methyl)pyrazolo[1,5-a]pyridine-7-carboxamide] | > 70% | 
COc1cc(C(=O)Nc2c(Br)cc3ccnn3c2C(=O)NC2(C)CC2)n(-c2ncccc2Cl)n1 [Compound 223, 5-bromo-6-(1-(3-chloropyridin-2-yl)-3-methoxy-1H-pyrazole-5-carboxamido)-N-(1-methylcyclopropyl)pyrazolo[1,5-a]pyridine-7-carboxamide] |  | > 70%
